The target of the test is human α-thrombin (Homo sapiens, UniProt P00734). The test can be described thus: Sub-library screen for active and permeable cyclic peptides (PAMPA plus thrombin inhibition). The settings on record: crude, slopes normalized to DMSO; for Residual thrombin activity: Top sample: PAMPA acceptor well after 14 h, 5 μM donor; for Residual thrombin activity: Equilibrated sample: donor sample diluted to theoretical equilibrium (1 μM in assay). Format: biochemical. Summed up: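 Acylated cyclic peptides at 5 μM in PBS pH 7.4 with 5% DMSO were run through PAMPA for 14 h at room temperature. Acceptor wells and a diluted donor sample at 3 μM, representing maximum permeability, were preincubated 10 min with human α-thrombin (6 nM stock). Z-Gly-Gly-Arg-AMC (150 μM stock) fluorescence was then read for 30 min at 25 °C, and inhibition was taken against a no-peptide control.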

In the case of `O=C1C[C@H]2CCCN2C(=O)[C@H](Cc2ccc(Cl)cc2)NC(=O)[C@@H](NC(=O)c2ccc(Cl)s2)CCSCc2ccc(cc2)CSCCN1` [C2-X34-L3], the “Residual thrombin activity: Top sample” value is on record as 99.4 and the “Residual thrombin activity: Equilibrated sample” value worked out at 99.1.

Regarding `N#Cc1ccc(C[C@@H]2NC(=O)[C@@H](NC(=O)c3ccc(Cl)s3)CCSCc3ccccc3CSCCNC(=O)C[C@H]3CCCN3C2=O)cc1` [C2-X35-L6], the “Residual thrombin activity: Top sample” value is on record as 90.0 and the “Residual thrombin activity: Equilibrated sample” value came to 91.7.

As for `O=C1C[C@H]2CCCN2C(=O)[C@H](Cc2ccccc2)NC(=O)[C@@H](NC(=O)c2ccc(Cl)s2)CCCSCc2ccc(cc2)CSCCN1` [C3-X5-L3], the “Residual thrombin activity: Top sample” value amounted to 86.8 and the “Residual thrombin activity: Equilibrated sample” value was 50.1.

Turning to `O=C1C[C@H]2CCCN2C(=O)[C@H](Cc2ccccc2)NC(=O)[C@@H](NC(=O)c2ccc(Cl)s2)CCSCCS(=O)(=O)CCSCCN1` [C2-X5-L2], the “Residual thrombin activity: Top sample” value was 89.4 and the “Residual thrombin activity: Equilibrated sample” value turned out to be 25.8.

In the case of `O=C1C[C@H]2CCCN2C(=O)[C@H](Cc2ccccc2)NC(=O)[C@@H](NC(=O)c2ccc(Cl)s2)CSCc2ccccc2CSCCN1` [C1-X5-L6], the “Residual thrombin activity: Top sample” value was determined as 82.2 and the “Residual thrombin activity: Equilibrated sample” value was 60.8.

Consider `CN1C(=O)[C@@H](NC(=O)c2ccc(Cl)s2)CCSCc2cccc(n2)CSCCNC(=O)C[C@H]2CCCN2C(=O)[C@@H]1Cc1ccccc1` [C2-X32-L1], for which the “Residual thrombin activity: Top sample” value was found to be 92.7 and the “Residual thrombin activity: Equilibrated sample” value is listed as 101.7.

In the case of `CN1C(=O)[C@@H](NC(=O)c2ccc(Cl)s2)CSCc2cccc(c2)CSCCNC(=O)C[C@H]2CCCN2C(=O)[C@@H]1Cc1ccccc1` [C1-X32-L5], the “Residual thrombin activity: Top sample” value is on record as 98.6 and the “Residual thrombin activity: Equilibrated sample” value amounted to 96.6.

For the compound `O=C1C[C@H]2CCCN2C(=O)[C@H](Cc2ccc(C(F)(F)F)cc2)NC(=O)[C@@H](NC(=O)c2ccc(Cl)s2)CCSC/C=C/CSCCN1` [C2-X36-L4], the “Residual thrombin activity: Top sample” value was found to be 103.3 and the “Residual thrombin activity: Equilibrated sample” value was found to be 101.3.

With `O=C1C[C@H]2CCCN2C(=O)[C@@H](Cc2ccccc2)NC(=O)[C@@H](NC(=O)c2ccc(Cl)s2)CCCSC/C=C/CSCCN1` [C3-X31-L4], the “Residual thrombin activity: Top sample” value is 100.8 and the “Residual thrombin activity: Equilibrated sample” value is recorded as 98.3.

Turning to `O=C1C[C@H]2CCCN2C(=O)[C@H](Cc2ccc(C(F)(F)F)cc2)NC(=O)[C@@H](NC(=O)c2ccc(Cl)s2)CCCSCc2cccc(n2)CSCCN1` [C3-X36-L1], the “Residual thrombin activity: Top sample” value was found to be 102.2 and the “Residual thrombin activity: Equilibrated sample” value came out at 98.3.

For `N#Cc1ccc(C[C@@H]2NC(=O)[C@@H](NC(=O)c3ccc(Cl)s3)CCCSCCS(=O)(=O)CCSCCNC(=O)C[C@H]3CCCN3C2=O)cc1` [C3-X35-L2], the “Residual thrombin activity: Top sample” value was 106.0 and the “Residual thrombin activity: Equilibrated sample” value worked out at 96.7.

As for `O=C1C[C@H]2CCCN2C(=O)[C@H](Cc2ccccc2)NC(=O)[C@@H](NC(=O)c2ccc(Cl)s2)CSC/C=C/CSCCN1` [C1-X5-L4], the “Residual thrombin activity: Top sample” value amounted to 53.7 and the “Residual thrombin activity: Equilibrated sample” value is given as 31.7.

For `O=C1CSCCC[C@H](NC(=O)c2ccc(Cl)s2)C(=O)N[C@@H](Cc2ccccc2)C(=O)N2CCC[C@@H]2CC(=O)NCCSC1` [C3-X5-L7], the “Residual thrombin activity: Top sample” value turned out to be 73.4 and the “Residual thrombin activity: Equilibrated sample” value worked out at 33.5.

On to `CN1C(=O)[C@@H](NC(=O)c2ccc(Cl)s2)CCCSCCS(=O)(=O)CCSCCNC(=O)C[C@H]2CCCN2C(=O)[C@@H]1Cc1ccccc1` [C3-X32-L2], for which the “Residual thrombin activity: Top sample” value worked out at 103.4 and the “Residual thrombin activity: Equilibrated sample” value was 103.4.

Turning to `O=C1C[C@H]2CCCN2C(=O)[C@H](Cc2ccc(C(F)(F)F)cc2)NC(=O)[C@@H](NC(=O)c2ccc(Cl)s2)CSCCS(=O)(=O)CCSCCN1` [C1-X36-L2], the “Residual thrombin activity: Top sample” value amounted to 99.0 and the “Residual thrombin activity: Equilibrated sample” value was 102.5.

Take `N#Cc1ccc(C[C@@H]2NC(=O)[C@@H](NC(=O)c3ccc(Cl)s3)CCCSCc3ccccc3CSCCNC(=O)C[C@H]3CCCN3C2=O)cc1` [C3-X35-L6]: the “Residual thrombin activity: Top sample” value worked out at 96.5 and the “Residual thrombin activity: Equilibrated sample” value is listed as 93.5.

Regarding `O=C1C[C@H]2CCCN2C(=O)[C@H](Cc2ccccc2)NC(=O)[C@@H](NC(=O)c2ccc(Cl)s2)CCSCc2cccc(c2)CSCCN1` [C2-X5-L5], the “Residual thrombin activity: Top sample” value was 90.5 and the “Residual thrombin activity: Equilibrated sample” value was determined as 54.8.

`N#Cc1ccc(C[C@@H]2NC(=O)[C@@H](NC(=O)c3ccc(Cl)s3)CSC/C=C/CSCCNC(=O)C[C@H]3CCCN3C2=O)cc1` [C1-X35-L4]: the “Residual thrombin activity: Top sample” value was 93.4 and the “Residual thrombin activity: Equilibrated sample” value stood at 96.9.

For `O=C1C[C@H]2CCCN2C(=O)[C@@H](Cc2ccccc2)NC(=O)[C@@H](NC(=O)c2ccc(Cl)s2)CCSCCS(=O)(=O)CCSCCN1` [C2-X31-L2], the “Residual thrombin activity: Top sample” value stood at 98.7 and the “Residual thrombin activity: Equilibrated sample” value stood at 98.6.

Take `O=C1C[C@H]2CCCN2C(=O)[C@H](Cc2ccccc2)NC(=O)[C@@H](NC(=O)c2ccc(Cl)s2)CCCSCc2cccc(c2)CSCCN1` [C3-X5-L5]: the “Residual thrombin activity: Top sample” value turned out to be 84.2 and the “Residual thrombin activity: Equilibrated sample” value was determined as 60.5.

As to `O=C1C[C@H]2CCCN2C(=O)[C@@H](Cc2ccccc2)NC(=O)[C@@H](NC(=O)c2ccc(Cl)s2)CSCc2cccc(c2)CSCCN1` [C1-X31-L5], the “Residual thrombin activity: Top sample” value is 100.5 and the “Residual thrombin activity: Equilibrated sample” value was found to be 95.5.

Consider `O=C1C[C@H]2CCCN2C(=O)[C@@H](Cc2ccccc2)NC(=O)[C@@H](NC(=O)c2ccc(Cl)s2)CSCCS(=O)(=O)CCSCCN1` [C1-X31-L2], for which the “Residual thrombin activity: Top sample” value turned out to be 103.5 and the “Residual thrombin activity: Equilibrated sample” value is reported as 90.9.

Take `O=C1C[C@H]2CCCN2C(=O)[C@H](Cc2ccc(Cl)cc2)NC(=O)[C@@H](NC(=O)c2ccc(Cl)s2)CSCc2ccccc2CSCCN1` [C1-X34-L6]: the “Residual thrombin activity: Top sample” value turned out to be 93.0 and the “Residual thrombin activity: Equilibrated sample” value is recorded as 92.0.

With `COc1ccc(C[C@@H]2NC(=O)[C@@H](NC(=O)c3ccc(Cl)s3)CCCSCc3ccccc3CSCCNC(=O)C[C@H]3CCCN3C2=O)cc1` [C3-X33-L6], the “Residual thrombin activity: Top sample” value is on record as 95.1 and the “Residual thrombin activity: Equilibrated sample” value is given as 92.6.

Take `O=C1C[C@H]2CCCN2C(=O)[C@@H](Cc2ccccc2)NC(=O)[C@@H](NC(=O)c2ccc(Cl)s2)CCCSCCS(=O)(=O)CCSCCN1` [C3-X31-L2]: the “Residual thrombin activity: Top sample” value amounted to 103.5 and the “Residual thrombin activity: Equilibrated sample” value was 93.7.

With `Cc1cccc(C[C@@H]2NC(=O)[C@@H](NC(=O)c3ccc(Cl)s3)CCSCCS(=O)(=O)CCSCCNC(=O)C[C@H]3CCCN3C2=O)c1` [C2-X37-L2], the “Residual thrombin activity: Top sample” value was 97.6 and the “Residual thrombin activity: Equilibrated sample” value stood at 73.7.

`N#Cc1ccc(C[C@@H]2NC(=O)[C@@H](NC(=O)c3ccc(Cl)s3)CSCC(=O)CSCCNC(=O)C[C@H]3CCCN3C2=O)cc1` [C1-X35-L7]: the “Residual thrombin activity: Top sample” value was determined as 96.3 and the “Residual thrombin activity: Equilibrated sample” value is 100.4.

`N#Cc1ccc(C[C@@H]2NC(=O)[C@@H](NC(=O)c3ccc(Cl)s3)CCCSCc3ccc(cc3)CSCCNC(=O)C[C@H]3CCCN3C2=O)cc1` [C3-X35-L3]: the “Residual thrombin activity: Top sample” value was determined as 103.5 and the “Residual thrombin activity: Equilibrated sample” value came out at 94.6.

`O=C1C[C@H]2CCCN2C(=O)[C@H](Cc2ccccc2)NC(=O)[C@@H](NC(=O)c2ccc(Cl)s2)CCCSCCS(=O)(=O)CCSCCN1` [C3-X5-L2]: the “Residual thrombin activity: Top sample” value came to 81.8 and the “Residual thrombin activity: Equilibrated sample” value was 27.6.

Regarding `O=C1CSCCNC(=O)C[C@H]2CCCN2C(=O)[C@H](Cc2ccc(Cl)cc2)NC(=O)[C@@H](NC(=O)c2ccc(Cl)s2)CSC1` [C1-X34-L7], the “Residual thrombin activity: Top sample” value came out at 100.2 and the “Residual thrombin activity: Equilibrated sample” value amounted to 98.8.

For the compound `CN1C(=O)[C@@H](NC(=O)c2ccc(Cl)s2)CCCSCc2ccc(cc2)CSCCNC(=O)C[C@H]2CCCN2C(=O)[C@@H]1Cc1ccccc1` [C3-X32-L3], the “Residual thrombin activity: Top sample” value is recorded as 101.7 and the “Residual thrombin activity: Equilibrated sample” value is on record as 98.3.

In the case of `O=C1C[C@H]2CCCN2C(=O)[C@H](Cc2ccc(C(F)(F)F)cc2)NC(=O)[C@@H](NC(=O)c2ccc(Cl)s2)CCCSCc2cccc(c2)CSCCN1` [C3-X36-L5], the “Residual thrombin activity: Top sample” value is 105.6 and the “Residual thrombin activity: Equilibrated sample” value turned out to be 108.0.

Turning to `O=C1C[C@H]2CCCN2C(=O)[C@@H](Cc2ccccc2)NC(=O)[C@@H](NC(=O)c2ccc(Cl)s2)CCSCc2ccccc2CSCCN1` [C2-X31-L6], the “Residual thrombin activity: Top sample” value came out at 92.4 and the “Residual thrombin activity: Equilibrated sample” value amounted to 88.8.

With `Cc1cccc(C[C@@H]2NC(=O)[C@@H](NC(=O)c3ccc(Cl)s3)CCCSCc3ccccc3CSCCNC(=O)C[C@H]3CCCN3C2=O)c1` [C3-X37-L6], the “Residual thrombin activity: Top sample” value is 92.8 and the “Residual thrombin activity: Equilibrated sample” value turned out to be 79.2.

In the case of `Cc1cccc(C[C@@H]2NC(=O)[C@@H](NC(=O)c3ccc(Cl)s3)CCCSCc3cccc(n3)CSCCNC(=O)C[C@H]3CCCN3C2=O)c1` [C3-X37-L1], the “Residual thrombin activity: Top sample” value is given as 78.3 and the “Residual thrombin activity: Equilibrated sample” value came out at 49.4.

Regarding `O=C1C[C@H]2CCCN2C(=O)[C@H](Cc2ccccc2)NC(=O)[C@@H](NC(=O)c2ccc(Cl)s2)CCCSC/C=C/CSCCN1` [C3-X5-L4], the “Residual thrombin activity: Top sample” value is given as 55.8 and the “Residual thrombin activity: Equilibrated sample” value is 36.8.

`CN1C(=O)[C@@H](NC(=O)c2ccc(Cl)s2)CCCSC/C=C/CSCCNC(=O)C[C@H]2CCCN2C(=O)[C@@H]1Cc1ccccc1` [C3-X32-L4]: the “Residual thrombin activity: Top sample” value worked out at 101.4 and the “Residual thrombin activity: Equilibrated sample” value was 100.1.

(Values after paper PMC11062899, “De novo development of small cyclic peptides that are orally bioavailable” (Nature Chemical Biology, 2023).)
